Assay results from patent US11553712B2 (priority 2010, dated 2023).
Read-outs that look alike come from different tables or passages of the source. Marks after values point to notes of the source that are not given here.

Legend:
PRV = conditions: eluate with 45% PG
BVDV = conditions: 45% (v/v) PG eluate, 20°C
TGEV = conditions: 45% (v/v) PG eluate, 20°C
[1] = T = 6 h (+SD) (Standard titration)
[2] = BVDV Run 1, T = 0 min Load Sample, Standard titration
[3] = BVDV Run 1, T = 5 min, Standard titration
[4] = BVDV Run 1, T = 15 min, Standard titration
[5] = BVDV Run 1, T = 60 min, Standard titration
[6] = BVDV Run 1, T = 180 min, Standard titration
[7] = BVDV Run 1, T = 360 min, Standard titration
[8] = BVDV Run 2, T = 0 min Load Sample, Standard titration
[9] = BVDV Run 2, T = 5 min, Standard titration
[10] = BVDV Run 2, T = 15 min, Standard titration
[11] = BVDV Run 2, T = 60 min, Standard titration
[12] = BVDV Run 2, T = 180 min, Standard titration
[13] = TGEV Run 1, T = 0 min Load Sample, Standard titration
[14] = TGEV Run 1, T = 5 min, Standard titration
[15] = TGEV Run 1, T = 15 min, Standard titration
[16] = TGEV Run 1, T = 60 min, Standard titration
[17] = TGEV Run 1, T = 180 min, Standard titration
[18] = TGEV Run 1, T = 360 min, Standard titration
[19] = TGEV Run 2, T = 0 min Load Sample, Standard titration
[20] = TGEV Run 2, T = 5 min, Standard titration
[21] = TGEV Run 2, T = 15 min, Standard titration
[22] = TGEV Run 2, T = 60 min, Standard titration
[23] = TGEV Run 2, T = 180 min, 1LVP (96 wells)
[24] = TGEV Run 2, T = 360 min, 1 LVP (96 wells)

In the case of propane-1,2-diol [PG], the Titer (PRV; Control T = 0 h (w/o SD)) is reported as 2.17 ± 0.30 TCID50/ml, the “Viral Load” value (PRV; Control T = 0 h (w/o SD)) is reported as 4.47 ± 0.30 log10 and the Titer (PRV; Control T = 6 h (w/o SD)) is reported as ≤0.78* TCID50/ml. For the same substance, the “Viral Load” value (PRV; Control T = 6 h (w/o SD)) was at most 3.08 log10, the Titer (PRV; T = 0 h (+SD)) was ≤1.48* TCID50/ml and the “Viral Load” value (PRV; T = 0 h (+SD)) was at most 3.78 log10. For the same substance, the Titer (PRV; T = 1 h (+SD)) was ≤1.48* TCID50/ml, the “Viral Load” value (PRV; T = 1 h (+SD)) was at most 3.78 log10 and the Titer (PRV; T = 3 h (+SD)) was ≤1.48* TCID50/ml. For the same substance, the “Viral Load” value (PRV; T = 3 h (+SD)) was at most 3.78 log10, the Titer (PRV; [1]) was ≤1.48* TCID50/ml and the “Viral Load” value (PRV; [1]) was at most 3.78 log10. The “Clearance Factor” value (BVDV; [2]) was 0.43 log, the “Log10TICD50 (total viral load)” value (BVDV; [2]) was 5.85 Log10TICD50 and the Titre (BVDV; [2]) was 3.12 log10TCID50/ml. For the same substance, the “Clearance Factor” value (BVDV; [3]) was 1.65 log, the “Log10TICD50 (total viral load)” value (BVDV; [3]) was 4.63 Log10TICD50 and the Titre (BVDV; [3]) was 1.9 log10TCID50/ml. For the same substance, the “Reduction Factor” value (BVDV; BVDV Run 1, T = 5 min vs T0, Standard titration) was 1.22 log, the “Clearance Factor” value (BVDV; [4]) was 1.3 log and the “Log10TICD50 (total viral load)” value (BVDV; [4]) was 4.98 Log10TICD50. For the same substance, the Titre (BVDV; [4]) was 2.25 log10TCID50/ml, the “Reduction Factor” value (BVDV; BVDV Run 1, T = 15 min vs T0, Standard titration) was 0.87 log and the “Clearance Factor” value (BVDV; [5]) was 1.3 log. For the same substance, the “Log10TICD50 (total viral load)” value (BVDV; [5]) was 4.98 Log10TICD50, the Titre (BVDV; [5]) was 2.25 log10TCID50/ml and the “Reduction Factor” value (BVDV; BVDV Run 1, T = 60 min vs T0, Standard titration) was 0.87 log. The “Clearance Factor” value (BVDV; [6]) was 1.3 log, the “Log10TICD50 (total viral load)” value (BVDV; [6]) was 4.98 Log10TICD50 and the Titre (BVDV; [6]) was 2.25 log10TCID50/ml. The “Reduction Factor” value (BVDV; BVDV Run 1, T = 180 min vs T0, Standard titration) was 0.87 log, the “Clearance Factor” value (BVDV; [7]) was 2.75 log and the “Log10TICD50 (total viral load)” value (BVDV; [7]) was 3.53 Log10TICD50. For the same substance, the Titre (BVDV; [7]) was 0.8 log10TCID50/ml, the “Reduction Factor” value (BVDV; BVDV Run 1, T = 360 min vs T0, Standard titration) was over 4.32 log and the “Clearance Factor” value (BVDV; [8]) was 0.44 log. The “Log10TICD50 (total viral load)” value (BVDV; [8]) was 5.76 Log10TICD50, the Titre (BVDV; [8]) was 3.03 log10TCID50/ml and the “Clearance Factor” value (BVDV; [9]) was 1.88 log. For the same substance, the “Log10TICD50 (total viral load)” value (BVDV; [9]) was 4.32 Log10TICD50, the Titre (BVDV; [9]) was 1.59 log10TCID50/ml and the “Reduction Factor” value (BVDV; BVDV Run 2, T = 5 min vs T0, Standard titration) was 1.44 log. The “Clearance Factor” value (BVDV; [10]) was 2.15 log, the “Log10TICD50 (total viral load)” value (BVDV; [10]) was 4.05 Log10TICD50 and the Titre (BVDV; [10]) was 1.32 log10TCID50/ml. The “Reduction Factor” value (BVDV; BVDV Run 2, T = 15 min vs T0, Standard titration) was 1.71 log, the “Clearance Factor” value (BVDV; [11]) was 1.88 log and the “Log10TICD50 (total viral load)” value (BVDV; [11]) was 4.32 Log10TICD50. For the same substance, the Titre (BVDV; [11]) was 1.59 log10TCID50/ml, the “Reduction Factor” value (BVDV; BVDV Run 2, T = 60 min vs T0, Standard titration) was 1.44 log and the “Clearance Factor” value (BVDV; [12]) was over 2.67 log. For the same substance, the “Log10TICD50 (total viral load)” value (BVDV; [12]) was under 3.53 Log10TICD50, the Titre (BVDV; [12]) was under 0.8 log10TCID50/ml and the “Reduction Factor” value (BVDV; BVDV Run 2, T = 180 min vs T0, Standard titration) was over 2.23 log. The “Clearance Factor” value (BVDV; BVDV Run 2, T = 360 min, 1 LVP) was over 3.59 log, the “Log10TICD50 (total viral load)” value (BVDV; BVDV Run 2, T = 360 min, 1 LVP) was under 2.61 Log10TICD50 and the Titre (BVDV; BVDV Run 2, T = 360 min, 1 LVP) was under −0.12 log10TCID50/ml. For the same substance, the “Reduction Factor” value (BVDV; BVDV Run 2, T = 360 min vs T0, 1 LVP) was over 3.15 log, the “Clearance Factor” value (TGEV; [13]) was 0.07 log and the “Log10TICD50 (total viral load)” value (TGEV; [13]) was 7.38 Log10TICD50. The Titre (TGEV; [13]) was 5.12 log10TCID50/ml, the “Clearance Factor” value (TGEV; [14]) was 1.24 log and the “Log10TICD50 (total viral load)” value (TGEV; [14]) was 6.21 Log10TICD50. The Titre (TGEV; [14]) was 3.95 log10TCID50/ml, the “Reduction Factor” value (TGEV; TGEV Run 1, T = 5 min vs T0, Standard titration) was 1.17 log and the “Clearance Factor” value (TGEV; [15]) was 2.41 log. The “Log10TICD50 (total viral load)” value (TGEV; [15]) was 5.04 Log10TICD50, the Titre (TGEV; [15]) was 2.78 log10TCID50/ml and the “Reduction Factor” value (TGEV; TGEV Run 1, T = 15 min vs T0, Standard titration) was 2.34 log. The “Clearance Factor” value (TGEV; [16]) was 3.87 log, the “Log10TICD50 (total viral load)” value (TGEV; [16]) was 3.58 Log10TICD50 and the Titre (TGEV; [16]) was 1.32 log10TCID50/ml. For the same substance, the “Reduction Factor” value (TGEV; TGEV Run 1, T = 60 min vs T0, Standard titration) was 3.8 log, the “Clearance Factor” value (TGEV; [17]) was 4.39 log and the “Log10TICD50 (total viral load)” value (TGEV; [17]) was 3.06 Log10TICD50. The Titre (TGEV; [17]) was 0.8 log10TCID50/ml, the “Reduction Factor” value (TGEV; TGEV Run 1, T = 180 min vs T0, Standard titration) was 4.32 log and the “Clearance Factor” value (TGEV; [18]) was over 4.39 log. For the same substance, the “Log10TICD50 (total viral load)” value (TGEV; [18]) was under 3.06 Log10TICD50, the Titre (TGEV; [18]) was under 0.8 log10TCID50/ml and the “Reduction Factor” value (TGEV; TGEV Run 1, T = 360 min vs T0, Standard titration) was over 4.32 log. For the same substance, the “Clearance Factor” value (TGEV; [19]) was 0.08 log, the “Log10TICD50 (total viral load)” value (TGEV; [19]) was 7.54 Log10TICD50 and the Titre (TGEV; [19]) was 5.28 log10TCID50/ml. For the same substance, the “Clearance Factor” value (TGEV; [20]) was 1.08 log, the “Log10TICD50 (total viral load)” value (TGEV; [20]) was 6.54 Log10TICD50 and the Titre (TGEV; [20]) was 4.28 log10TCID50/ml. For the same substance, the “Reduction Factor” value (TGEV; TGEV Run 2, T = 5 min vs T0, Standard titration) was 1 log, the “Clearance Factor” value (TGEV; [21]) was 2.16 log and the “Log10TICD50 (total viral load)” value (TGEV; [21]) was 5.46 Log10TICD50. For the same substance, the Titre (TGEV; [21]) was 3.2 log10TCID50/ml, the “Reduction Factor” value (TGEV; TGEV Run 2, T = 15 min vs T0, Standard titration) was 2.08 log and the “Clearance Factor” value (TGEV; [22]) was 4.56 log. The “Log10TICD50 (total viral load)” value (TGEV; [22]) was 3.06 Log10TICD50, the Titre (TGEV; [22]) was 0.8 log10TCID50/ml and the “Reduction Factor” value (TGEV; TGEV Run 2, T = 60 min vs T0, Standard titration) was 4.48 log. The “Clearance Factor” value (TGEV; [23]) was 5.48 log, the “Log10TICD50 (total viral load)” value (TGEV; [23]) was 2.14 Log10TICD50 and the Titre (TGEV; [23]) was −0.12 log10TCID50/ml. For the same substance, the “Reduction Factor” value (TGEV; TGEV Run 2, T = 180 min vs T0, 1LVP (96 wells)) was 5.4 log, the “Clearance Factor” value (TGEV; [24]) was over 5.48 log and the “Log10TICD50 (total viral load)” value (TGEV; [24]) was under 2.14 Log10TICD50. For the same substance, the Titre (TGEV; [24]) was under −0.12 log10TCID50/ml and the “Reduction Factor” value (TGEV; TGEV Run 2, T = 360 min vs T0, 1 LVP (96 wells)) was over 5.40 log.
